“And” between values parts separate entries of the source, which are not always exact repeats. Identical values can stand only once.
Tested on: Bacillus subtilis spores
Type: binding

Substance: Peptide 7183 consensus (RFTISRDNAKNTLYLQMSC; Peptide 7183 artificial peptide corresponding to consensus sequence in 7183 VH gene family.) [reference compound]
- concentration at which the peptide stained spores: 200 μg/ml and 100 μM

Substance: Peptide Anti-spore (RFTISRDNPKNTLFLQMTC; Peptide Anti-spore artificial peptide corresponding to consensus sequence in the framework 3 region of antibodies against Bacillus subtilis spores.)
- binding to B. subtilis spores: bind strongly and specifically
- concentration at which the peptide stained spores: 2 μg/ml and 1 μM
